Reference: patent US8148391B2 (Cephalon, Inc., priority 2006, dated 2012)

How the values were obtained:
[1] = molecular target: T1, c-Met (cytoplasmic domain) (Homo sapiens, UniProt P08581); assay: c-Met Kinase Assay (same methods as for ALK, with modifications); type: biochemical; settings: 1 μM ATP (Km level); read-out: cMet Activity (c-Met Kinase Inhibition, IC50)
T1 construct: 10 ng/mL c-Met (cytoplasmic domain, Invitrogen Corporation #PV3143); purchased Invitrogen Corporation PV3143
Outline: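 Wells were coated with 10 μg/mL phospholipase C-γ substrate in TBS, and reactions were started with 10 ng/mL c-Met cytoplasmic domain and run at 37° C for 15 minutes. Phosphorylated product was detected with Eu-N1-labeled PT66 antibody. IC50 values came from sigmoidal variable-slope fits of percent inhibition versus log compound concentration.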

[2] = molecular target: T2, baculovirus-expressed ALK (Homo sapiens, UniProt Q9UM73); assay: ALK Kinase Assay (ELISA-type, time-resolved fluorescence); type: biochemical; settings: 1 μM ATP (Km level); read-out: ALK Activity (ALK Kinase Inhibition, IC50)
T2 construct: host or cells: baculovirus expression system
T2 sequence (Q9UM73 19-1620): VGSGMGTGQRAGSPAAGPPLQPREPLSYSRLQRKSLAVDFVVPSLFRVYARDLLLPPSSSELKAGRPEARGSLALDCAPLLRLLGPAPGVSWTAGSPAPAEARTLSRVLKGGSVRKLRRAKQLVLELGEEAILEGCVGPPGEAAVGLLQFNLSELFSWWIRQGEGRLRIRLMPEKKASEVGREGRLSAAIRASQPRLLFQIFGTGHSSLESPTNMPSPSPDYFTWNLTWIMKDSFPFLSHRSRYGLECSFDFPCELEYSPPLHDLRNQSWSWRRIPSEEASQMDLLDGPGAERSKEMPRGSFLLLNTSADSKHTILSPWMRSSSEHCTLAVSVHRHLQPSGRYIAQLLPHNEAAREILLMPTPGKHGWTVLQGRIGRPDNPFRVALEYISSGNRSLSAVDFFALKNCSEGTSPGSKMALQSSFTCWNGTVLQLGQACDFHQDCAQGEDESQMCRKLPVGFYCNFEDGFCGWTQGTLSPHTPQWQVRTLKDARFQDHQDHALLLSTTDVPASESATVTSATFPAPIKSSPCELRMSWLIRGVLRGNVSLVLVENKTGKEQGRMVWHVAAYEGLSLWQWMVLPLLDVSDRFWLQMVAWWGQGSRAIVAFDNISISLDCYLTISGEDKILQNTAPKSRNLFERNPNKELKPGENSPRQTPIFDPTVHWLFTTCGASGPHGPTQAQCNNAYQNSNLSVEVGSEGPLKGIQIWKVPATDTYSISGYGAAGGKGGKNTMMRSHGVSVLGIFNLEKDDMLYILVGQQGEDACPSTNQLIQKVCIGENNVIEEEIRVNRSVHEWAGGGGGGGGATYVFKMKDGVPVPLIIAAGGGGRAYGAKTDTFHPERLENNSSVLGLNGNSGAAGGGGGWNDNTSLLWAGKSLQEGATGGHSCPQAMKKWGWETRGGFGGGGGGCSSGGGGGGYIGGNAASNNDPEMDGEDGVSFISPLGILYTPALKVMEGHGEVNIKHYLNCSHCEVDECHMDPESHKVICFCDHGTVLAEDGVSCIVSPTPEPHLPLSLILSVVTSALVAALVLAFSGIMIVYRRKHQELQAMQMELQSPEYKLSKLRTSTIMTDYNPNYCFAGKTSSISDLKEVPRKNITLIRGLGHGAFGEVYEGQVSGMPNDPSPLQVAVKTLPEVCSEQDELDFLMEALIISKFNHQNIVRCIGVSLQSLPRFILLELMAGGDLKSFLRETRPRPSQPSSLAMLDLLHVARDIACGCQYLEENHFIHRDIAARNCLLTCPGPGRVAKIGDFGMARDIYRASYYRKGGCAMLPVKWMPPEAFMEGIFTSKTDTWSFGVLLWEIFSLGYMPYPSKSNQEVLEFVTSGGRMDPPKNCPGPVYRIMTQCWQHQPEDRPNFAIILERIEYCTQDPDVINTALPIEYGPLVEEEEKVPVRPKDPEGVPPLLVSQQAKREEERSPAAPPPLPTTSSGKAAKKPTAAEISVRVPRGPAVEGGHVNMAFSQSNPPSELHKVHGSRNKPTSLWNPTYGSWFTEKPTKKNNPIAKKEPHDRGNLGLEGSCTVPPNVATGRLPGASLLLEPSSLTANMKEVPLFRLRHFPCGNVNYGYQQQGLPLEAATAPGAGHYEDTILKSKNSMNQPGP
Outline: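 Substrate coating: phospholipase C-γ, 10 μg/mL in TBS. Kinase step: 30 ng/ml ALK, 15 min, 37° C. Detection and analysis: Eu-N1 PT66 antibody, with IC50 fitted as a sigmoidal variable-slope dose-response curve.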

T1 sequence (P08581 956-1390 limits assumed): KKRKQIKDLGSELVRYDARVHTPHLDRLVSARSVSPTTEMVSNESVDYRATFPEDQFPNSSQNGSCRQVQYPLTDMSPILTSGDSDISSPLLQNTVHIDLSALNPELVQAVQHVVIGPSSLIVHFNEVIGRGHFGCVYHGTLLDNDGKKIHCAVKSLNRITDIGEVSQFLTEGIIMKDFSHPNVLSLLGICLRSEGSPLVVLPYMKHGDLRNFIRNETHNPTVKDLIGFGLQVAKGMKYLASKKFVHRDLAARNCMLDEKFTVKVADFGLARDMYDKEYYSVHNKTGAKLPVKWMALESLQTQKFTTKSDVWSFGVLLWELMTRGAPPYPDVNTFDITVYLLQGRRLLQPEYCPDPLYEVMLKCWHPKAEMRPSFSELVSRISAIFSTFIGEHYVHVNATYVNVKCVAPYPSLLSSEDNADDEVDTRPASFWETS

Row | Compound | IC50 [1] | IC50 [2]
1 | CNC(=O)c1ccccc1Nc1nc(Nc2ccc3c(c2)CCC(NCC(F)F)CC3)ncc1Cl (centres unmarked) [Example 660, 2-{5-Chloro-2-[7-(2,2-difluoro-ethylamino)-6,7,8,9-tetrahydro-5H-benzocyclohepten-2-ylamino]-pyrimidin-4-ylamino}-N-methyl-benzamide] | < 100 nM | < 100 nM
2 | Cn1ccnc1-c1ccccc1Nc1nc(Nc2ccc3c(c2)CCC(NCC(F)F)CC3)ncc1Cl (centres unmarked) [Example 661, 5-Chloro-N*2*-[7-(2,2-difluoro-ethylamino)-6,7,8,9-tetrahydro-5H-benzocyclohepten-2-yl]-N*4*-[2-(1-methyl-1H-imidazol-2-yl)-phenyl]-pyrimidine-2,4-diamine] | 100 to 1000 nM | 100 to 1000 nM
3 | CS(=O)(=O)N[C@@H]1CCCC[C@H]1Nc1nc(Nc2ccc3c(c2)CCC(NCC(F)F)CC3)ncc1Cl (stereo partly drawn) [Example 662, N-((1R,2R)-2-{5-Chloro-2-[7-(2,2-difluoro-ethylamino)-6,7,8,9-tetrahydro-5H-benzocyclohepten-2-ylamino]-pyrimidin-4-ylamino}-cyclohexyl)-methanesulfonamide] | 100 to 1000 nM | < 100 nM
4 | COc1ccccc1Nc1nc(Nc2ccc3c(c2)CCC(NCC(F)F)CC3)ncc1Cl (centres unmarked) [Example 663, 5-Chloro-N*2*-[7-(2,2-difluoro-ethylamino)-6,7,8,9-tetrahydro-5H-benzocyclohepten-2-yl]-N*4*-(2-methoxy-phenyl)-pyrimidine-2,4-diamine] | 1000 to 10000 nM | < 100 nM
5 | CNC(=O)c1cccc(F)c1Nc1nc(Nc2ccc3c(c2)CCC(NCC(F)F)CC3)ncc1Cl (centres unmarked) [Example 664, 2-{5-Chloro-2-[7-(2,2-difluoro-ethylamino)-6,7,8,9-tetrahydro-5H-benzocyclohepten-2-ylamino]-pyrimidin-4-ylamino}-3-fluoro-N-methyl-benzamide] | < 100 nM | < 100 nM
6 | NC(=O)[C@@H]1[C@H](Nc2nc(Nc3ccc4c(c3)CCC(NCC(F)F)CC4)ncc2Cl)[C@H]2C=C[C@@H]1C2 (stereo partly drawn) [Example 665, (1S,2S,3R,4R)-3-{5-Chloro-2-[7-(2,2-difluoro-ethylamino)-6,7,8,9-tetrahydro-5H-benzocyclohepten-2-ylamino]-pyrimidin-4-ylamino}-bicyclo[2.2.1]hept-5-ene-2-carboxylic acid amide] | 100 to 1000 nM | < 100 nM
7 | COc1cc(N2CCOCC2)ccc1Nc1nc(Nc2ccc3c(c2)CCCC(=O)N3C(C)C)ncc1Cl [Example 666, 7-[5-Chloro-4-(2-methoxy-4-morpholin-4-yl-phenylamino)-pyrimidin-2-ylamino]-1-isopropyl-1,3,4,5-tetrahydro-benzo[b]azepin-2-one] | 1000 to 10000 nM | 100 to 1000 nM
8 | CC(C)N1C(=O)CCCc2cc(Nc3ncc(Cl)c(N[C@@H]4CCCC[C@H]4NS(C)(=O)=O)n3)ccc21 [Example 667, N-{(1R,2R)-2-[5-Chloro-2-(1-isopropyl-2-oxo-2,3,4,5-tetrahydro-1H-benzo[b]azepin-7-ylamino)-pyrimidin-4-ylamino]-cyclohexyl}-methanesulfonamide] | 100 to 1000 nM | < 100 nM
9 | CNC(=O)c1cccc(Nc2nc(Nc3ccc4c(c3)CCCC(=O)N4C)ncc2Cl)c1 [Example 668, 3-[5-Chloro-2-(1-methyl-2-oxo-2,3,4,5-tetrahydro-1H-benzo[b]azepin-7-ylamino)-pyrimidin-4-ylamino]-N-methyl-benzamide] | 1000 to 10000 nM | 100 to 1000 nM
10 | CC(C)N1C(=O)CCCc2cc(Nc3ncc(Cl)c(NC4C5C=CC(C5)C4C(N)=O)n3)ccc21 (centres unmarked) [Example 669, 3-[5-Chloro-2-(1-isopropyl-2-oxo-2,3,4,5-tetrahydro-1H-benzo[b]azepin-7-ylamino)-pyrimidin-4-ylamino]-bicyclo[2.2.1]hept-5-ene-2-carboxylic acid amide] | < 100 nM | < 100 nM
11 | CNC(=O)c1cccc(Nc2nc(Nc3ccc4c(c3)C(C)(C)CCC(=O)N4C)ncc2Cl)c1 [Example 670, 3-[5-Chloro-2-(1,5,5-trimethyl-2-oxo-2,3,4,5-tetrahydro-1H-benzo[b]azepin-7-ylamino)-pyrimidin-4-ylamino]-N-methyl-benzamide] | 1000 to 10000 nM | < 100 nM
12 | NC(=O)[C@@H]1[C@H](Nc2nc(Nc3ccc4c(c3)CCC(N3CCOCC3)CC4)ncc2Cl)[C@H]2C=C[C@@H]1C2 (stereo partly drawn) [Example 671, (1S,2S,3R,4R)-3-[5-Chloro-2-(7-morpholin-4-yl-6,7,8,9-tetrahydro-5H-benzocyclohepten-2-ylamino)-pyrimidin-4-ylamino]-bicyclo[2.2.1]hept-5-ene-2-carboxylic acid amide] | < 100 nM | < 100 nM
13 | CNC(=O)c1cccc(Nc2nc(Nc3ccc4c(c3)C(C)(C)CCC(=O)N4)ncc2Cl)c1 [Example 672, 3-[5-Chloro-2-(5,5-dimethyl-2-oxo-2,3,4,5-tetrahydro-1H-benzo[b]azepin-7-ylamino)-pyrimidin-4-ylamino]-N-methyl-benzamide] | 1000 to 10000 nM | 100 to 1000 nM
14 | CNC(=O)c1cccc(Nc2nc(Nc3ccc4c(c3)CCN(CCOC)CC4)ncc2Cl)c1 [Example 673, 3-{5-Chloro-2-[3-(2-methoxy-ethyl)-2,3,4,5-tetrahydro-1H-benzo[d]azepin-7-ylamino]-pyrimidin-4-ylamino}-N-methyl-benzamide] | 1000 to 10000 nM | 100 to 1000 nM
15 | COc1cc(N2CCN(C)CC2)ccc1Nc1nc(Nc2ccc3c(c2)CCCC(=O)N3C(C)C)ncc1Cl [Example 674, 7-{5-Chloro-4-[2-methoxy-4-(4-methyl-piperazin-1-yl)-phenylamino]-pyrimidin-2-ylamino}-1-isopropyl-1,3,4,5-tetrahydro-benzo[b]azepin-2-one] | 1000 to 10000 nM | < 100 nM
16 | COc1c(Nc2ncc(Cl)c(N[C@H]3[C@@H](C(N)=O)[C@@H]4C=C[C@H]3C4)n2)ccc2c1CCC(NCC(F)(F)F)CC2 (stereo partly drawn) [Example 679, (1S,2S,3R,4R)-3-{5-Chloro-2-[1-methoxy-7-(2,2,2-trifluoro-ethylamino)-6,7,8,9-tetrahydro-5H-benzocyclohepten-2-ylamino]-pyrimidin-4-ylamino}-bicyclo[2.2.1]hept-5-ene-2-carboxylic acid amide] | > 10000 nM | < 100 nM
17 | COc1c(Nc2ncc(Cl)c(Nc3ccccc3S(=O)(=O)N(C)C)n2)ccc2c1CCC(NCC(F)F)CC2 (centres unmarked) [Example 683, 2-{5-Chloro-2-[7-(2,2-difluoro-ethylamino)-1-methoxy-6,7,8,9-tetrahydro-5H-benzocyclohepten-2-ylamino]-pyrimidin-4-ylamino}-N,N-dimethyl-benzenesulfonamide] | > 10000 nM | < 100 nM
18 | COc1c(Nc2ncc(Cl)c(Nc3ccccc3S(=O)(=O)N(C)C)n2)ccc2c1CCC(NCC(F)(F)F)CC2 (centres unmarked) [Example 684, 2-{5-Chloro-2-[1-methoxy-7-(2,2,2-trifluoro-ethylamino)-6,7,8,9-tetrahydro-5H-benzocyclohepten-2-ylamino]-pyrimidin-4-ylamino}-N,N-dimethyl-benzenesulfonamide] | > 10000 nM | < 100 nM
19 | COc1c(Nc2ncc(Cl)c(Nc3ccccc3-n3cccn3)n2)ccc2c1CCC(NCC(F)F)CC2 (centres unmarked) [Example 689, 5-Chloro-N*2*-[7-(2,2-difluoro-ethylamino)-1-methoxy-6,7,8,9-tetrahydro-5H-benzocyclohepten-2-yl]-N*4*-(2-pyrazol-1-yl-phenyl)-pyrimidine-2,4-diamine] | > 10000 nM | < 100 nM
